Source: US9353075B2, “Disubstituted beta-lactones as inhibitors of N-acylethanolamine acid amidase (NAAA)” (The Regents of the University of California, priority 2011, dated 2016)
pIC50: −log10 of the molar value.

target: r-NAAA (Rattus norvegicus (Rat), UniProt Q5KTC7); assay: r-NAAA inhibition, rat lung lysosomal NAAA preparation, UPLC/MS; assay type: biochemical; conditions: not given
Protocol: Lysosomal NAAA protein preparation were obtained by homogenizing male Sprague-Dawley rat lungs (Charles River) in 20 mM Tris-HCl buffer pH 7.4 containing 0.32M sucrose. Samples were centrifuged at 800×g for 15 minutes at 4° C. Supernatants were then centrifuged at 12,000 g for 30 minutes at 4° C. Pellets were then resuspended in PBS pH 7.4 and subjected to a freeze/thaw cycle at −80° C. The suspension was finally centrifuged at 105,000×g for 1 hour at 4° C. The supernatant was then used in the enzymatic assay.
NAAA protein preparation was pre-incubated with various concentrations of test compounds or vehicle control in 100 mM NaH2PO4/Citrate buffer, 1% Triton-X, 3 mM DTT (pH 4.5) for 30 minutes at 37° C. Samples were then incubated with heptadecenoylethanolamide (50 μM, Avanti Polar Lipids) at 37° C. for 30 min. The reaction was terminated by addition of cold methanol containing heptadecanoic acid (NuCheck Prep) as internal standard. Samples were then analyzed by UPLC/MS (Acquity, Waters). Heptadecenoic and heptadecanoic acids were eluted on an Acquity UPLC BEH C18 column (50 mm length, 2.1 mm i.d., 1.7 μm pore size, Waters) isocratically at 0.5 mL/min for 1.5 min with a solvent mixture of 95% methanol and 5% water, both containing 0.25% Acetic Acid and 5 mM Ammonium Acetate. The column temperature was 40° C. Electrospray ionization was in the negative mode, capillary voltage was 0.5 kV, cone voltage was […], desolvation temperature was 500° C. N2 was used as drying gas at a flow rate of 1000 L/hour and a temperature of 500° C. The [M−H]^− ion was monitored in the selected-ion monitoring mode (m/z values: heptadecenoic acid 267.37, heptadecanoic acid 269.37). Calibration curves were generated using commercial heptadecenoic acid (NuCheck Prep). Inhibition of NAAA activity was calculated as reduction of heptadecenoic acid in the samples compared to vehicle controls. IC50 values were calculated by non-linear regression analysis of log [concentration]/inhibition curves using GraphPad Prism 5 (GraphPad Software Inc., CA—USA) applying a standard slope curve fitting.

Chain of r-NAAA (Q5KTC7 34-362): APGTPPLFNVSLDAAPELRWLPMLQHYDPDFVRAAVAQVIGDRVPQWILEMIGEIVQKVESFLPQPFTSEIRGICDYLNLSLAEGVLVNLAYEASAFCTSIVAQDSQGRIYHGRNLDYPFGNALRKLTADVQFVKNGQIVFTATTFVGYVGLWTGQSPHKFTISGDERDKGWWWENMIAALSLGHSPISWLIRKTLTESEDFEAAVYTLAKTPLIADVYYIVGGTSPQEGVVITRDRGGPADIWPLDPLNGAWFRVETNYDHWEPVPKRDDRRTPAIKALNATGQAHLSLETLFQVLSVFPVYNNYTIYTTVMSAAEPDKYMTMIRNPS

Row | SMILES | pIC50 | r-NAAA IC50 (μM) or % inhib. (result in words)
1 | CC(C)C(CCCCc1ccccc1)OC(=O)N[C@H]1C(=O)O[C@H]1C (mixture of isomers) [Example 28, [(1R) and (1S)-1-Isopropyl-5-phenyl-pentyl]-N-[(2S,3R)-2-methyl-4-oxo-oxetan-3-yl]-carbamate] | 7.00 | 
2 | C[C@@H]1OC(=O)[C@@H]1NC(=O)OC1CCC(Cc2ccccc2)CC1 (mixture of isomers) [Example 30, (1s,4S) and (1r, 4R)-(4-Benzylcyclohexyl)-N-[(2S,3R)-2-methyl-4-oxooxetan-3-yl]-carbamate] | 6.51 | 
3 | CCCCCOC(=O)N[C@H]1C(=O)O[C@H]1C [Example 1, Pentyl-[(2S,3R)-2-methyl-4-oxooxetan-3-yl]-carbamate] | 6.17 | 
4 | Cc1ccc(CCOC(=O)N[C@H]2C(=O)O[C@H]2C)cc1 [Example 3, 2-(4-methylphenyl)ethyl-[(2S,3R)-2-methyl-4-oxooxetan-3-yl]-carbamate] | 5.92 | 
5 | C[C@@H]1OC(=O)[C@@H]1NC(=O)OCCCc1ccccc1 [Example 4, 3-phenylpropyl-[(2S,3R)-2-methyl-4-oxooxetan-3-yl]-carbamate] | 7.08 | 
6 | C[C@@H]1OC(=O)[C@@H]1NC(=O)OC1CCN(C(=O)c2ccccc2)CC1 [Example 9, (1-benzoyl-4-piperidyl)-N-[(2S,3R)-2-methyl-4-oxo-oxetan-3-yl]-carbamate] | 5.88 | 
7 | C[C@@H]1OC(=O)[C@@H]1NC(=O)OC1(C)CCCCC1 [Example 10, (1-methylcyclohexyl)-[(2S,3R)-2-methyl-4-oxo-oxetan-3-yl]-carbamate] | 6.08 | 
8 | C[C@@H]1OC(=O)[C@@H]1NC(=O)OC1(C)CCOCC1 [Example 11, (4-methyltetrahydropyran-4-yl)-N-[(2S,3R)-2-methyl-4-oxo-oxetan-3-yl]-carbamate] | 4.40 | 
9 | C[C@@H]1OC(=O)[C@@H]1NC(=O)OCCCCCCCc1ccccc1 [Example 16, 7-Phenylheptyl-N-[(2S,3R)-2-methyl-4-oxo-oxetan-3-yl]-carbamate] | 6.96 | 
10 | C[C@@H]1OC(=O)[C@@H]1NC(=O)OC1(C)CCCC1 [Example 23, (1-Methylcyclopentyl) N-[(2S,3R)-2-methyl-4-oxo-oxetan-3-yl]-carbamate] | 5.91 | 
11 | CCCCC1(OC(=O)N[C@H]2C(=O)O[C@H]2C)COC1 [Example 24, (3-butyloxetan-3-yl)-N-[(2S,3R)-2-methyl-4-oxo-oxetan-3-yl]-carbamate] | 5.42 | 
12 | C[C@@H]1OC(=O)[C@@H]1NC(=O)Oc1ccc(OCc2ccccc2)cc1 [Example 26, (4-benzyloxyphenyl)-N-[(2S,3R)-2-methyl-4-oxo-oxetan-3-yl]-carbamate] | 6.54 | 
13 | C[C@@H]1OC(=O)[C@@H]1NC(=O)OC1CCC(=Cc2ccccc2)CC1 (stereo partly drawn) [Example 31, (R,Z) and (S,E)-(4-Benzylidenecyclohexyl)-N-[(2S,3R)-2-methyl-4-oxooxetan-3-yl]-carbamate] | 6.12 | 
14 | C[C@@H]1OC(=O)[C@@H]1NC(=O)OCCc1ccccc1 [Example 33, Phenethyl-N-[(2S,3R)-2-methyl-4-oxo-oxetan-3-yl]-carbamate] | 5.60 | 
15 | C[C@@H]1OC(=O)[C@@H]1NC(=O)OCCCCCCc1ccccc1 [Example 34, 6-Phenylhexyl-N-[(2S,3R)-2-methyl-4-oxo-oxetan-3-yl]-carbamate] | 5.93 | 
16 | C[C@@H]1OC(=O)[C@@H]1NC(=O)OCCOCCc1ccccc1 [Example 36, 2-Phenethyloxyethyl-N-[(2S,3R)-2-methyl-4-oxo-oxetan-3-yl]-carbamate] | 6.85 | 
17 | C[C@H]1OC(=O)[C@H]1NC(=O)OCCCCCc1ccccc1 [Example 37, 5-Phenylpentyl-N-[(2R,3S)-2-methyl-4-oxo-oxetan-3-yl]-carbamate] | 5.45 | 
18 | C[C@H]1OC(=O)[C@@H]1NC(=O)OCCCCCc1ccccc1 [Example 38, 5-Phenylpentyl-N-[(2R,3R)-2-methyl-4-oxo-oxetan-3-yl]-carbamate] | 7.74 | 
19 | CCCCCCOC(=O)N[C@H]1C(=O)O[C@H]1C [Example 39, Hexyl-N-[(2S,3R)-2-methyl-4-oxo-oxetan-3-yl]-carbamate] | 6.57 | 
20 | CCCCCCCOC(=O)N[C@H]1C(=O)O[C@H]1C [Example 40, Heptyl-N-[(2S,3R)-2-methyl-4-oxo-oxetan-3-yl]-carbamate] | 7.40 | 
21 | C[C@@H]1OC(=O)[C@@H]1N(C)C(=O)OCCCCCc1ccccc1 [Example 41, 5-Phenylpentyl-N-methyl-N-[(2S,3R)-2-methyl-4-oxo-oxetan-3-yl]-carbamate] |  | No inhib.

same assay, conditions: read-out: r-NAAA % inhib. @ 3 μM

Row | SMILES | inhibition at 3 µM
22 | CC[C@H]1OC(=O)[C@@H]1NC(=O)OCc1ccc(-c2ccccc2)cc1 (relative stereo) [Example 48, (4-Phenylphenyl)-methyl-N-[(2R*,3R*)-2-ethyl-4-oxo-oxetan-3-yl]-carbamate] | 100%
23 | CC[C@@H]1OC(=O)[C@@H]1NC(=O)OCc1ccc(-c2ccccc2)cc1 (relative stereo) [Example 50, (4-Phenylphenyl)-methyl-N-[(2S*,3R*)-2-ethyl-4-oxo-oxetan-3-yl]-carbamate] | 100%
24 | CC(C)[C@H]1OC(=O)[C@@H]1NC(=O)OCCCCCc1ccccc1 (relative stereo) [Example 51, 5-Phenylpentyl-N-[(2R*,3R*)-2-isopropyl-4-oxo-oxetan-3-yl]-carbamate] | 92%
25 | CC(C)[C@H]1OC(=O)[C@@H]1NC(=O)OCc1ccc(-c2ccccc2)cc1 (relative stereo) [Example 52, (4-Phenylphenyl)-methyl-N-[(2R*,3R*)-2-isopropyl-4-oxo-oxetan-3-yl]-carbamate] | 93%
26 | CC(C)[C@@H]1OC(=O)[C@@H]1NC(=O)OCCCCCc1ccccc1 (relative stereo) [Example 53, 5-Phenylpentyl-N-[(2S*,3R*)-2-isopropyl-4-oxo-oxetan-3-yl]-carbamate] | 55%
27 | CC(C)[C@@H]1OC(=O)[C@@H]1NC(=O)OCc1ccc(-c2ccccc2)cc1 (relative stereo) [Example 54, (4-Phenylphenyl)-methyl-N-[(2S*,3R*)-2-isopropyl-4-oxo-oxetan-3-yl]-carbamate] | 53%
28 | CC(C)(C)[C@H]1OC(=O)[C@@H]1NC(=O)OCc1ccc(-c2ccccc2)cc1 (relative stereo) [Example 57, (4-Phenyl-phenyl)-methyl-N-[(2R*,3R*)-2-tert-butyl-4-oxo-oxetan-3-yl]-carbamate] | 73%
29 | CC(C)(C)[C@@H]1OC(=O)[C@@H]1NC(=O)OCc1ccc(-c2ccccc2)cc1 (relative stereo) [Example 59, (4-Phenyl-phenyl)-methyl-N-[(2S*,3R*)-2-tert-butyl-4-oxo-oxetan-3-yl]-carbamate] | 57%
30 | CCC1OC(=O)C1NC(=O)OC(C)(C)C (stereo not drawn) [Example 13, tert-Butyl-N-[(2S*,3R*)-2-ethyl-4-oxo-oxetan-3-yl]-carbamate and tert-Butyl-N-[(2S*,3S*)-2-ethyl-4-oxo-oxetan-3-yl]-carbamate] | 48%
31 | C[C@@H]1OC(=O)[C@@H]1NC(=O)OC1CCN(Cc2ccccc2)CC1 [Example 21, (1-benzyl-4-piperidyl)-N-[(2S,3R)-2-methyl-4-oxo-oxetan-3-yl]-carbamate] | 21%

same assay, conditions: read-out: r-NAAA % inhib. @ 10 μM

Row | SMILES | inhibition at 10 µM
32 | C[C@@H]1OC(=O)[C@@H]1NC(=O)OCc1cccc(-c2ccccc2)c1 [Example 14, (3-phenylphenyl)-methyl-N-[(2S,3R)-2-methyl-4-oxo-oxetan-3-yl]-carbamate] | 28%
